Laboratory results as given in patent publication US20080090848A1, “Substituted Purinyl Derivatives With Immunomodulator And Chemoprotective Activity And Use Alone Or With Medium-Chain Length Fatty Acids Or Glycerides” (priority 2004, published 2008).
Read-outs that look alike come from different tables or passages of the source.

Experiments:
hematopoietic cells [1] = assay: Chemoprotection: in vivo protection of hematopoietic cells by compound I in CY-immunosuppressed mice (Example 1); parameters: species or system C57BL/6 mice; details: for Cell count, peripheral blood white cells / Cell count, spleen red cells / Cell count, spleen white cells: CY 200 mg/kg i.v. day 0, compound I 50 mg/kg i.p. day −3, −2, −1, sacrifice day +5
Experimental: (§1) Female C57BL/6 mice, 6 to 8 weeks old, were immunosuppressed by treatment with 200 mg/kg of cyclophosphamide (CY) administered intravenously at day 0. To examine the chemoprotective effect of compound I, mice were pre-treated intraperitoneally at day −3, −2 and −1 with 50 mg/kg of the compound. Mice were sacrificed at day +5 by cardiac puncture and cervical dislocation. Then, cell suspensions were prepared from thymus, spleen and bone marrow as follows.
(§2) Tissues were crushed in PBS buffer and contaminating erythrocytes were lysed in ACK buffer (155 mM NH4Cl, 12 mM NaHCO3, 0.1 mM EDTA, pH 7.3) for five minutes. Cells were then collected by centrifugation and washed three times in PBS and resuspended in tissue culture medium. Cells were counted with a Coulter counter.

bone marrow red cells = assay: Chemoprotection: combination of tricaprin and compound I in CY-treated mice, bone marrow red cell count (Example 3); type: in vivo, C57BL/6 mice; details: tricaprin 60.5 mM oral and/or compound I 50 mg/kg peritoneal injection, day −3, −2, −1
Experimental: as §1, §2
(§3) The effect of tricaprin, compound I, and the combination of both compounds on in vivo induction of hematopoietic cell proliferation or protection was determined following the protocol described in Example 1. Oral administration of tricaprin (60.5 mM) and/or peritoneal injection of compound I were performed on day −3, −2 and −1.

[2] = system: bone marrow progenitor cell; assay: Bone marrow progenitor cells (CFU-GEMM) after tricaprin, compound I or both in CY-treated mice (Example 3); type: in vivo, C57BL/6 mice; details: tricaprin 60.5 mM oral and/or compound I 50 mg/kg
Experimental: as §1, §3

hematopoietic cells [3] = assay: Chemoprotection: in vivo protection of hematopoietic cells by compound II in CY-treated mice (Example 4); parameters: species or system C57BL/6 mice
Experimental: as §1, §2
The effect of compound II on in vivo induction of hematopoietic cell proliferation or protection was determined following the protocol described in Example 1. Oral administration of compound II (50 mg/kg or 100 mg/kg) was performed on day −3, −2 and −1.

[4] = rat, in vivo, po; cited from earlier work
hematopoietic cells [5] = assay: Chemoprotection: combination of sodium caprate and compound I in CY-treated mice (Example 2); type: in vivo, C57BL/6 mice; details: for Effect on bone marrow red cell count (FIG. 2) / Effect on bone marrow white cell count (FIG. 3): low dose, intravenous: sodium caprate 1.21 mM, compound I 5 mg/kg, sodium caprate or compound I used alone; for Effect on peripheral red blood cell count (FIG. 1): sodium caprate 60.5 mM oral and/or compound I 50 mg/kg i.p., day −3, −2, −1, versus respective CY control
hematopoietic cells [6] = assay: Chemoprotection: combination of histamine dihydrochloride and compound I in CY-treated mice (Example 6); type: in vivo, C57BL/6 mice; details: for Effect on bone marrow white cell count (FIG. 5): intravenous histamine dihydrochloride 25 mg/kg and/or compound I 5 mg/kg, day −3, −2, −1, CY-treated mice, compared to CY
Experimental: (§4) Mice were sacrificed at day +5 by cardiac puncture and cervical dislocation. Then, cell suspensions were prepared from thymus, spleen and bone marrow as follows. Tissues were crushed in PBS buffer and contaminating erythrocytes were lysed in ACK buffer (155 mM NH4Cl, 12 mM NaHCO3, 0.1 mM EDTA, pH 7.3) for five minutes. Cells were then collected by centrifugation and washed three times in PBS and resuspended in tissue culture medium. Cells were counted with a Coulter counter. Effect of low dose of histamine, compound I, and the combination of both compounds on in vivo induction of hematopoietic cell proliferation or protection was undertaken following the protocol described in Example 1.

MC-38 colon cancer = assay: Survival of mice with MC-38 colon cancer treated with a toxic regimen of 5-fluorouracil; type: in vivo; details: compound I plus toxic regimen of 5-fluorouracil versus 5-fluorouracil alone (e.g., 40 mg/kg)
CTLs = details: compared with interleukin 2; cited from earlier work
[7] = cited from earlier work
[8] = i.v., rat; cited from earlier work
hematopoietic cells [9] = assay: Chemoprotection: combination of histamine dihydrochloride and compound II in CY-treated mice (Example 7); type: in vivo, C57BL/6 mice; details: histamine dihydrochloride 25 mg/kg i.v. and/or compound II 100 mg/kg oral, day −3, −2, −1, compared to CY
Experimental: as §1, §2
Effect of low dose of histamine, compound II, and the combination of both compounds on in vivo induction of hematopoietic cell proliferation or protection was undertaken following the protocol described in Example 1. Intravenous administration of histamine dihydrochloride (25 mg/kg) and oral administration of compound II (100 mg/kg) were performed on day −3, −2 and −1.

hematopoietic cells [10] = assay: Chemoprotection: combination of sodium caprate and compound II in CY-treated mice (Example 5); type: in vivo, C57BL/6 mice; details: oral sodium caprate 60.5 mM and/or compound II 50 mg/kg or 100 mg/kg, day −3, −2, −1
Experimental: as §4, with “The effect” for “Effect”, “sodium caprate,” for “low dose of histamine,”, “II,” for “I,”, “determined” for “undertaken”

[11] = CY alone (200 mg/kg i.v. day 0)
[12] = pre-treatment 50 mg/kg i.p. in CY-treated mice, versus CY
[13] = CY + compound II 50 mg/kg oral, day −3, −2, −1
[14] = CY + compound II 100 mg/kg oral, day −3, −2, −1
[15] = oral pre-treatment in CY-treated mice, dose not given

For O=P1(N(CCCl)CCCl)NCCCO1 (stereo not shown) [CY, cyclophosphamide, reference compound], the “Cell count, peripheral blood white cells” value (hematopoietic cells [1]) was 1.3 ± 0.6 10^6, the “Cell count, spleen red cells” value (hematopoietic cells [1]) was 341 ± 107 10^6 and the “Cell count, spleen white cells” value (hematopoietic cells [1]) was 34. ± 9 10^6. The “Bone marrow red cell count” value (bone marrow red cells) was 31.5 ± 3.5 10^6, the “CFU-GEMM (colony number), bone marrow” value [2] was 1 colony number and the “Cell count, bone marrow red cells” value (hematopoietic cells [3]; [11]) was 31.6 ± 5.0 10^6. For the same compound, the “Cell count, bone marrow white cells” value (hematopoietic cells [3]; [11]) was 19.8 ± 4.4 10^6.

In the case of CCCCCCCCCC(=O)OCC(COC(=O)CCCCCCCCC)OC(=O)CCCCCCCCC [Tricaprin, tricaprin], the “Bone marrow red cell count” value (bone marrow red cells) is reported as 33.8 ± 3.7 10^6 and the “CFU-GEMM (colony number), bone marrow” value [2] is reported as 0.5 colony number.

In the case of CCCCCCCC(=O)O [caprylic acid], the LD50 [4] is listed as 10.08 g/kg.

With CN(C)c1ncnc2c1ncn2CCCCCOC(=O)NC(CCCNC(=N)N)C(=O)O (stereo not drawn) [compound I, [[5-[6-(N,N-dimethylamino)purin-9-yl]pentoxy]-carbonyl]d-arginine] the “Cell count, peripheral blood white cells” value (hematopoietic cells [1]) was 2.6 ± 0.6 10^6, the “Cell count, spleen red cells” value (hematopoietic cells [1]) was 468 ± 104 10^6 and the “Cell count, spleen white cells” value (hematopoietic cells [1]) was 48 ± 5 10^6. For the same compound, the “Spleen red cell count compared to non-immunosuppressed animals (control)” value (hematopoietic cells [1]; pre-treatment 50 mg/kg i.p. in CY-treated mice) was “some treated animals returned to a “baseline level””, the “Effect on peripheral white blood cell count (in words)” value (hematopoietic cells [1]; [12]) was “significant increase” and the “Effect on spleen red cell count (in words)” value (hematopoietic cells [1]; [12]) was “significant increase”. For the same compound, the “Effect on spleen white cell count (in words)” value (hematopoietic cells [1]; [12]) was “significant increase”, the “Effect on bone marrow red cell count (FIG. 2)” value (hematopoietic cells [5]) was “No effect” and the “Effect on bone marrow white cell count (FIG. 3)” value (hematopoietic cells [5]) was “No effect”. For the same compound, the “Effect on peripheral red blood cell count (FIG. 1)” value (hematopoietic cells [5]) was “significant increase”, the “Bone marrow red cell count” value (bone marrow red cells) was 37.4 ± 7.1 10^6 and the “CFU-GEMM (colony number), bone marrow” value [2] was 1 colony number. For the same compound, the “Effect on bone marrow white cell count (FIG. 5)” value (hematopoietic cells [6]) was “No significant effect”, the Survival of animals (MC-38 colon cancer) was “improved survival” and the “In vitro stimulation of CTLs” value (CTLs) was “comparable to the immune growth factor or cytokine interleukin 2”. The “In vivo antitumor activity” value [7] was “significant in vivo antitumor activity” and the LD50 [8] was “more than 500 mg/kg”.

In the case of CN(C)c1ncnc2c1ncn2CCCCCO [compound II], the “Cell count, bone marrow red cells” value (hematopoietic cells [3]; [13]) is reported as 29.4 ± 2.7 10^6, the “Cell count, bone marrow white cells” value (hematopoietic cells [3]; [13]) is reported as 17.4 ± 3.5 10^6 and the “Cell count, bone marrow red cells” value (hematopoietic cells [3]; [14]) is reported as 43.9 ± 16.3 10^6. The “Cell count, bone marrow white cells” value (hematopoietic cells [3]; [14]) was 30.5 ± 9.4 10^6, the “Bone marrow red and white cell counts compared to non-immunosuppressed animals (control)” value (hematopoietic cells [3]; oral pre-treatment in CY-treated mice) was “some treated animals return to a “baseline level”” and the “Effect on bone marrow red cell count (in words)” value (hematopoietic cells [3]; [15]) was “significant increase”. The “Effect on bone marrow white cell count (in words)” value (hematopoietic cells [3]; [15]) was “significant increase” and the “Effect on spleen white cell count (FIG. 7)” value (hematopoietic cells [9]) was “No significant effect”.

In the case of Cl.Cl.NCCc1c[nH]cn1 [histamine, histamine dihydrochloride], the Stimulation of hematopoiesis (hematopoietic cells [6]; histamine alone, general statement) is reported as “weakly stimulate hematopoiesis”, the “Effect on bone marrow white cell count (FIG. 5)” value (hematopoietic cells [6]) is reported as “No significant effect” and the “Effect on spleen white cell count (FIG. 7)” value (hematopoietic cells [9]) is reported as “No significant effect”.

In the case of c1ccc([C@H]2CN3CCSC3=N2)cc1 [levamisole, reference compound], the LD50 [8] is given as 16 mg/kg.

With CCCCCCCCCC(=O)[O-].[Na+] [sodium caprate] the “Effect on bone marrow red cell count (FIG. 2)” value (hematopoietic cells [5]) was “No effect”, the “Effect on bone marrow white cell count (FIG. 3)” value (hematopoietic cells [5]) was “No effect” and the “Effect on peripheral red blood cell count (FIG. 1)” value (hematopoietic cells [5]) was “significant increase”. The “Effect on peripheral red blood cell count (FIG. 4)” value (hematopoietic cells [10]) was “weak increase”.
